Here are results for 16 compounds from patent US8865623B2, “Herbicidally active cyclic diones and derivatives thereof, processes for their preparation, compositions, and method of controlling weeds” (Syngenta Limited, priority 2009, dated 2014).

Holding throughout (format): in vivo
Experiment [1] concerns Echinochloa crus-galli (ECHCG). The experiment can be described thus: Pre-emergence herbicidal activity, glasshouse pot test. Conditions: Echinochloa crus-galli, 312 h; Rate 250 g/ha; pre-emergence spray; evaluated after 13 days; read-out: Pre-emergence activity ECHCG (100=total damage to plant; 0=no damage to plant). How it is done: (§1) Seeds of a variety of test species were sown in standard soil in pots. After cultivation for one day (pre-emergence) or after 8 days cultivation (post-emergence) under controlled conditions in a glasshouse (at 24/16° C., day/night; 14 hours light; 65% humidity), the plants were sprayed with an aqueous spray solution derived from the formulation of the technical active ingredient in acetone/water (50:50) solution containing 0.5% Tween 20 (polyoxyethelyene sorbitan monolaurate, CAS RN 9005-64-5). The test plants were then grown in a glasshouse under controlled conditions in a glasshouse (at 24/16° C., day/night; 14 hours light; 65% humidity) and watered twice daily. After 13 days for pre and post-emergence, the test was evaluated (100=total damage to plant; 0=no damage to plant).
(§2) Lolium perenne (LOLPE), Alopecurus myosuroides (ALOMY), Echinochloa crus-galli (ECHCG), and Avena fatua (AVEFA).

Experiment [2] has as its system Avena fatua (AVEFA). The description is as above. Conditions: Avena fatua, 312 h; Rate 250 g/ha; pre-emergence spray; evaluated after 13 days; read-out: Pre-emergence activity AVEFA (100=total damage to plant; 0=no damage to plant). How it is done: as §1, §2
The test system of experiment [3] is Lolium perenne (LOLPE). Described as above. Conditions: Lolium perenne, 312 h; Rate 250 g/ha; pre-emergence spray; evaluated after 13 days; read-out: Pre-emergence activity LOLPE (100=total damage to plant; 0=no damage to plant). How it is done: as §1, §2
Experiment [4] deals with Alopecurus myosuroides (ALOMY). The description is as above. Conditions: Alopecurus myosuroides, 312 h; Rate 250 g/ha; pre-emergence spray; evaluated after 13 days; read-out: Pre-emergence activity ALOMY (100=total damage to plant; 0=no damage to plant). How it is done: as §1, §2
Experiment [5] has as its system Echinochloa crus-galli (ECHCG). The experiment can be described thus: Post-emergence herbicidal activity, glasshouse pot test. Conditions: Echinochloa crus-galli, 312 h, rate 250 g/ha, evaluated after 13 days, glasshouse, read-out: Post-emergence activity ECHCG (100=total damage to plant; 0=no damage to plant). How it is done:
as §1, §2

Experiment [6] deals with Avena fatua (AVEFA). Described as above. Conditions: Avena fatua, 312 h, rate 250 g/ha, evaluated after 13 days, glasshouse, read-out: Post-emergence activity AVEFA (100=total damage to plant; 0=no damage to plant). On the procedure: as §1, §2
Experiment [7] deals with Lolium perenne (LOLPE). Described as above. Conditions: Lolium perenne, 312 h, rate 250 g/ha, evaluated after 13 days, glasshouse, read-out: Post-emergence activity LOLPE (100=total damage to plant; 0=no damage to plant). How it is done: as §1, §2
For experiment [8], the system named is Alopecurus myosuroides (ALOMY). Described as above. Conditions: Alopecurus myosuroides, 312 h, rate 250 g/ha, evaluated after 13 days, glasshouse, read-out: Post-emergence activity ALOMY (100=total damage to plant; 0=no damage to plant). How it is done:
as §1, §2

For the compound `CCc1ccc(Oc2ccc(Br)c(C)c2)cc1C1=C(O)C(C)(C)OC(C)(C)C1=O` [Example A-11], the pest or weed control at 250 g/ha in experiment [1] came to 0%; with Avena fatua (AVEFA) [2], 0%; in the experiment on Lolium perenne (LOLPE) [3], 0%; in experiment [4] it was 0%; in experiment [5] it was 60%; in the experiment with Avena fatua (AVEFA) [6], 20%. Moreover, the pest or weed control at 250 g/ha (with Lolium perenne (LOLPE) [7]; in experiment [8]) was 50% in each case.

With `CCc1ccc(Oc2ccc(Br)cc2C)cc1C1=C(O)C(C)(C)OC(C)(C)C1=O` [Example A-12], the pest or weed control at 250 g/ha amounted to 0% in experiment [1]; 0% with Avena fatua (AVEFA) [2]; 0% in the experiment with Lolium perenne (LOLPE) [3]; 0% in experiment [4]; 70% in experiment [5]; 0% in the experiment with Avena fatua (AVEFA) [6]. The pest or weed control at 250 g/ha with Lolium perenne (LOLPE) [7] worked out at 50%; in experiment [8] it was 20%.

As for `CCc1ccc(Oc2ccccc2F)cc1C1=C(O)C(C)(C)OC(C)(C)C1=O` [Example A-13], the pest or weed control at 250 g/ha in experiment [1] is 0%; with Avena fatua (AVEFA) [2] it was 0%; with Lolium perenne (LOLPE) [3], 0%; in experiment [4], 0%; in experiment [5], 70%; in the experiment on Avena fatua (AVEFA) [6], 0%. The pest or weed control at 250 g/ha (in the experiment with Lolium perenne (LOLPE) [7]; in experiment [8]) was 0% in each case.

As for `CCc1ccc(Oc2ccc(F)cc2F)cc1C1=C(O)C(C)(C)OC(C)(C)C1=O` [Example A-14], the pest or weed control at 250 g/ha in experiment [1] amounted to 0%; in the experiment on Avena fatua (AVEFA) [2], 0%; with Lolium perenne (LOLPE) [3], 0%; in experiment [4] it was 0%; in experiment [5], 100%; with Avena fatua (AVEFA) [6] it was 10%. The pest or weed control at 250 g/ha in the experiment on Lolium perenne (LOLPE) [7] worked out at 40%; in experiment [8], 0%.

For `CCc1ccc(Oc2ccc(Cl)cc2F)cc1C1=C(O)C(C)(C)OC(C)(C)C1=O` [Example A-15], the pest or weed control at 250 g/ha in experiment [1] was determined as 100%; in the experiment with Avena fatua (AVEFA) [2], 60%; with Lolium perenne (LOLPE) [3], 100%; in experiment [4], 100%; in experiment [5], 100%; in the experiment on Avena fatua (AVEFA) [6] it was 70%. For the same compound, the pest or weed control at 250 g/ha is 100% with Lolium perenne (LOLPE) [7] and 90% in experiment [8].

For `CCc1ccc(Oc2cccc(F)c2F)cc1C1=C(O)C(C)(C)OC(C)(C)C1=O` [Example A-16], the pest or weed control at 250 g/ha in experiment [1] worked out at 100%; in the experiment on Avena fatua (AVEFA) [2] it was 0%; in the experiment on Lolium perenne (LOLPE) [3], 0%; in experiment [4], 0%; in experiment [5], 80%; in the experiment on Avena fatua (AVEFA) [6], 0%. Besides, the values for the pest or weed control at 250 g/ha (in the experiment on Lolium perenne (LOLPE) [7]; in experiment [8]) were 20% and 0%, respectively.

Turning to `CCc1ccc(Oc2ccc(Cl)cc2Cl)cc1C1=C(O)C(C)(C)OC(C)(C)C1=O` [Example A-19], the pest or weed control at 250 g/ha in experiment [1] was determined as 100%; in the experiment with Avena fatua (AVEFA) [2], 70%; with Lolium perenne (LOLPE) [3], 80%; in experiment [4], 50%; in experiment [5], 100%; with Avena fatua (AVEFA) [6], 60%. Further, the results for the pest or weed control at 250 g/ha (with Lolium perenne (LOLPE) [7]; in experiment [8]) were 90% and 60%, respectively.

Turning to `CCc1ccc(Oc2ccc([N+](=O)[O-])cc2F)cc1C1=C(O)C(C)(C)OC(C)(C)C1=O` [Example A-20], the pest or weed control at 250 g/ha in experiment [1] is 100%; with Avena fatua (AVEFA) [2] it was 20%; in the experiment with Lolium perenne (LOLPE) [3], 0%; in experiment [4] it was 40%; in experiment [5] it was 80%; with Avena fatua (AVEFA) [6], 70%. Further, the pest or weed control at 250 g/ha in the experiment on Lolium perenne (LOLPE) [7] was determined as 50%; in experiment [8] it was 0%.

Turning to `CCc1ccc(Oc2ccc(C#N)cc2F)cc1C1=C(O)C(C)(C)OC(C)(C)C1=O` [Example A-21], the pest or weed control at 250 g/ha in experiment [1] is 30%; in the experiment on Avena fatua (AVEFA) [2], 0%; with Lolium perenne (LOLPE) [3] it was 20%; in experiment [4], 0%; in experiment [5] it was 100%; in the experiment on Avena fatua (AVEFA) [6], 60%. Further, the pest or weed control at 250 g/ha in the experiment on Lolium perenne (LOLPE) [7] was 70%; in experiment [8] it was 100%.

Take `CCc1ccc(Oc2ccc(F)cc2)cc1C1=C(O)C(C)(C)OC(C)(C)C1=O` [Example A-22]: the pest or weed control at 250 g/ha in experiment [1] is 80%; in the experiment on Avena fatua (AVEFA) [2], 10%; in the experiment on Lolium perenne (LOLPE) [3], 60%; in experiment [4], 20%; in experiment [5], 100%; with Avena fatua (AVEFA) [6] it was 30%. For the same compound, the pest or weed control at 250 g/ha turned out to be 30% with Lolium perenne (LOLPE) [7] and 20% in experiment [8].

For `CCc1ccc(Oc2ccc(Cl)cc2Br)cc1C1=C(O)C(C)(C)OC(C)(C)C1=O` [Example A-23], the pest or weed control at 250 g/ha in experiment [1] turned out to be 90%; with Avena fatua (AVEFA) [2], 70%; in the experiment with Lolium perenne (LOLPE) [3], 90%; in experiment [4] it was 70%; in experiment [5], 100%; with Avena fatua (AVEFA) [6], 80%. Also, the results for the pest or weed control at 250 g/ha (in the experiment on Lolium perenne (LOLPE) [7]; in experiment [8]) were 90% and 80%, respectively.

As for `CCc1ccc(Oc2ccc(F)c(Cl)c2)cc1C1=C(O)C(C)(C)OC(C)(C)C1=O` [Example A-24], the pest or weed control at 250 g/ha in experiment [1] was determined as 90%; in the experiment on Avena fatua (AVEFA) [2], 40%; in the experiment with Lolium perenne (LOLPE) [3], 90%; in experiment [4], 30%; in experiment [5] it was 100%; with Avena fatua (AVEFA) [6], 70%. The pest or weed control at 250 g/ha (in the experiment on Lolium perenne (LOLPE) [7]; in experiment [8]) was 70% throughout.

In the case of `CCc1ccc(Oc2ccc(Br)cc2F)cc1C1=C(O)CC2(CCOCC2)CC1=O` [Example A-25], the pest or weed control at 250 g/ha in experiment [1] worked out at 90%; in the experiment on Avena fatua (AVEFA) [2], 80%; in the experiment on Lolium perenne (LOLPE) [3] it was 80%; in experiment [4], 70%; in experiment [5], 100%; in the experiment on Avena fatua (AVEFA) [6], 100%. Further, the pest or weed control at 250 g/ha (with Lolium perenne (LOLPE) [7]; in experiment [8]) was 90% each time.

Regarding `CCc1ccc(Oc2ccc(Cl)cc2)cc1C1=C(O)CC(C)(C)CC1=O` [Example A-26], the pest or weed control at 250 g/ha in experiment [1] was 100%; with Avena fatua (AVEFA) [2] it was 40%; in the experiment on Lolium perenne (LOLPE) [3], 80%; in experiment [4], 70%; in experiment [5] it was 100%; in the experiment with Avena fatua (AVEFA) [6], 40%. The pest or weed control at 250 g/ha in the experiment with Lolium perenne (LOLPE) [7] is 70%; in experiment [8] it was 80%.

Turning to `CCc1ccc(Oc2ccc(Cl)cc2)cc1C1=C(O)CCCC1=O` [Example A-27], the pest or weed control at 250 g/ha is 100% in experiment [1]; 60% in the experiment on Avena fatua (AVEFA) [2]; 60% with Lolium perenne (LOLPE) [3]; 40% in experiment [4]; 90% in experiment [5]; 40% in the experiment with Avena fatua (AVEFA) [6]. Besides, the pest or weed control at 250 g/ha (with Lolium perenne (LOLPE) [7]; in experiment [8]) was 30% in each case.

In the case of `CCc1ccc(Oc2ccc(F)cc2)cc1C1=C(O)CC(C)(C)CC1=O` [Example A-28], the pest or weed control at 250 g/ha in experiment [1] came out at 70%; in the experiment on Avena fatua (AVEFA) [2] it was 0%; in the experiment on Lolium perenne (LOLPE) [3], 40%; in experiment [4], 20%; in experiment [5], 80%; in the experiment with Avena fatua (AVEFA) [6], 20%. Moreover, the values for the pest or weed control at 250 g/ha (in the experiment with Lolium perenne (LOLPE) [7]; in experiment [8]) were 40% and 30%, respectively.
